According to patent US7220729B2, “Huntington's Disease Treatment” (Academia Sinica, priority 2004, dated 2007):

Experiments:
[1] = tested on: AMPK; assay: Western blot of AMPK protein and Thr172 phosphorylation in striatal cytosolic fraction of treated R6/2 mice; assay type: in vivo, mouse; conditions: striatum of R6/2 mice, 5 μg/g i.p. once a day up to 3.5 weeks
Experimental: Male R6/2 mice and wild type littermates were obtained from Jackson Laboratories (Bar Harbor, Me., USA) and were mated with female control mice (B6CBAFI/J). Each offspring was genotyped by PCR using genomic DNA extracted from the tail to ensure that the number of CAG repeats remained approximately 150. Primers used were [NT] ID NO:1) and [NT] ID NO:2). All animal experiments were performed under protocols approved by the Academia Sinica Institutional Animal Care and Utilization Conunittee, Taiwan. […] Then, the striatal cytosolic fraction was collected from each mouse and subjected to Western blot analysis using the standard techniques as described in Rutter et al., Biochem. J. 2003;375:1-16. More specifically, membrane fractions were combined with a 2× sample buffer containing 125 mM Tris-HCl (pH 6.8), 20% glycerol, 1% SDS, 15% 2-mercaptoethanol, 200 mM dithiothreitol, and 0.01% bromphenol blue; boiled for 5 minutes; centrifuged to remove the insoluble material; and then separated on 8% separating gels. […] The phosphorylation of AMPK at Thr172 was quantified by densitometry of the anti-AMPK-P immunoreactive bands using ImageQuant v.3.15 (Molecular Dynamics).

[2] = tested on: R6/2 mice; assay: Locomotor activity (beam breaks in activity monitor) of R6/2 mice; assay type: in vivo, mouse; conditions: week 2 after administration, 5 μg/g i.p. daily, vs vehicle, statistically significant (Student's t-test)
Experimental: Twenty-four hours after each administration, the locomotor activity of each mouse was measured for 10 minutes according to the method described in Lee et al., Chin. J. Physiol. 1992;35:317–336. Briefly, each mouse was placed in an activity monitor (Coulbourn Instruments, Allentown, Pa., USA) equipped with 16×16 horizontal sensors, which were used to monitor the mouse's floor position. The locomotor activity was measured by the total number of beam breaks in an X-Y plane recorded every 10 minutes.

[3] = tested on: R6/2 mice; assay: Motor coordination by rotarod performance; assay type: in vivo, mouse; conditions: treatment from 7 weeks of age, vs vehicle
From the text: The motor coordination of each mouse was also examined by rotarod performance using standard techniques. […] It is known that the motor coordination of an R6/2 mouse starts to deteriorate at the age of 4 weeks, which is 3 weeks prior to the time of the CGS 21680 treatment. It is expected that CGS 21680 administration prior to 4 week of age might improve the motor coordination of an R6/2 mouse.

[4] = tested on: R6/2 mice; assay: Striatal atrophy / lateral ventricle enlargement on coronal brain sections; assay type: in vivo, mouse; conditions: R6/2 mice at 12 weeks old; vehicle 1.63±0.14, p<0.001, n=5
Experimental: Striatal atrophy is one of the major characteristics of HD. In R6/2 mice, marked progressive atrophy of the striatum was found at the age of 3 to 13 weeks (Ferrante et al., J. Neurosci. 2000;20:4389–4397). Thus, the above-described CGS 21680-treated and vehicle-treated R6/2 mice were examined for striatal atrophy.
Each of the mice was anesthetized using sodium pentobarbital (100 μg/g), and intracardially perfused with 4% paraformaldehyde in 0.1 M phosphate buffer (PB, pH 7.4). The brain was carefully removed, post-fixed with 4% paraformaldehyde/0.1 M PB for 2–5 hours, and immersed in 30% glycerol in 0.1 M PB. Then, it was cut at 20 μm on a freezing microtome (CM3050, Leica Microsystems Nussloch, Nussloch, Germany). Serial-cut coronal tissue sections from the rostral segment of the neostriatum to the level of the anterior commissure (interaural 5.34 mm/bregma 1.54 mm to interaural 3.7 mm/bregma −0.1 mm) were used to define atrophy of the striatum and enlargement of the lateral ventricles. Total areas of the striatum or the lateral ventricles were measured using the software NIH Image 1.62. Nissl-stained sections were quantified by counting the corresponding types of cells in defined areas of photomicrographs taken using a phase contrast microscope.

[5] = tested on: NGF, CNTF, GDNF, BDNF, bFGF; assay: Quantitative real-time RT-PCR of striatal neurotrophic factors; assay type: in vivo, mouse; conditions: R6/2 mice, mRNA normalized to GAPDH, vs vehicle
Experimental: Total RNA was purified from each of the above-described administrated mice and their littermates, and was treated with RNase-free DNase I (RQI, Promega, Madison, Wis., USA) following the manufacturer's protocol to remove genomic DNA. cDNA synthesis and quantitative real-time RT-PCR were performed using the […] One-Step RT-PCR kit (Clontech, Palo Alto, Calif., USA) containing SYBR Green I (BioWhittaker Molecular Applications; BMA, Rockland, Me., USA). More specifically, the first-strand cDNA was synthesized at 50° C. for 60 minutes and denatured at 95° C. for 10 minutes. PCR reactions were then carried out in the same tubes using the following conditions for 40 cycles: 95° C. for 30 seconds, 60° C. for 30 seconds, and 68° C. for 60 seconds.
Independent RT-PCRs were performed using the same RNAs for each neurotrophic factor gene (target gene) and glyceraldehyde-3-phosphate dehydrogenase (GAPDH, reference gene). Real-time fluorescence monitoring and melting curve analysis were performed using Rotor-Gene 3000 (Corbett Research, Sydney, Australia). […] Data were analyzed by the Rotor-Gene 3000 operating software version 4.6.94 (Corbett Research) to determine the threshold cycle (CT) above the background for each reaction. The relative transcript amount of each target gene, calculated using standard curves of serial RNA dilutions, was normalized to that of GAPDH amplified from the same RNA.

[6] = tested on: adenylyl cyclase; assay: Adenylyl cyclase activity assay on striatal membrane fractions; assay type: biochemical, mouse; conditions: striatal membranes of R6/2 mice compared with wild type mice
Experimental: Briefly, striatal tissues were isolated from the mice and sonicated in a lysis buffer (0.4 mM EDTA, 1 mM EGTA, 25 mM Tris-HCl, 250 mM sucrose, 0.1 mM leupeptin, and 40 μM PMSF, pH 7.4) using a W-380 sonicator (Ultrasonics, Farmingdale, N.Y., USA) at a setting of 20% output power for a total of 45 seconds. The resultant homogenate was centrifuged at 50,000×g for 30 minutes and the P1 membrane fractions and the soluble fractions were collected. The adenylyl cyclase activity assay was performed at 37° C. for 10 minutes in a 400-μl reaction mixture containing 1 mM ATP, 100 mM NaCl, 50 mM Hepes, 0.2 mM EGTA, 100 μM rolipram, 6 mM MgCl2, 1 μM GTP, and 20 μg of membrane protein. The reactions were stopped by adding 0.6 ml of 10% TCA. The cAMP formed was isolated by Dowex chromatography (Sigma, St. Louis, Mo., USA) and was assayed to the method described in Chern et al. The enzymatic reaction was in a linear range for up to 30 minutes with up to 40 μg of membrane proteins.

[7] = tested on: R6/2 mice; assay: Blood glucose level in R6/2 mice; assay type: in vivo, mouse; conditions: chronic treatment, untreated R6/2 higher than wild type by approximately 1-fold
Experimental: Hyperglycemia has been found in HD patients and R6/2 mice. […] The above-described R6/2 mice and wild type littermates were decapitated and blood samples (1 to 1.5 ml) were collected from each mouse using standard techniques. Blood glucose levels were measured using ABBOTT Alcyon 300i (ABBOTT Labs, USA).

CCNC(=O)[C@H]1O[C@@H](n2cnc3c(N)nc(NCCc4ccc(CCC(=O)O)cc4)nc32)[C@H](O)[C@@H]1O [CGS21680]
reduction of AMPK phosphorylation level (Thr172) ([1]; vs vehicle): about 35% | AMPK protein level ([1]; compared with vehicle R6/2 and wild type): about the same AMPK protein level | locomotor activity [2]: did not exhibit such deterioration, but showed improvement in the locomotor activity | motor coordination (rotarod performance) [3]: No difference was found | size of ventricular enlargement [4]: 0.91±0.14 mm^2 | striatum expression level of trophic factors [5]: did not change | adenylyl cyclase activities induced by the compound, R6/2 vs wild type mice [6]: much higher level than those in the wild type mice | blood glucose level [7]: reduced the aberrantly elevated blood glucose level in R6/2 mice to a level comparable to that in the wild type mice
